Consider 5 molecules from article PMC4019751 (Bioorganic & medicinal chemistry letters, 2014).

The target in assay [1] is T1, human sEH (Homo sapiens, UniProt P34913).
T1 sequence (P34913 1-555): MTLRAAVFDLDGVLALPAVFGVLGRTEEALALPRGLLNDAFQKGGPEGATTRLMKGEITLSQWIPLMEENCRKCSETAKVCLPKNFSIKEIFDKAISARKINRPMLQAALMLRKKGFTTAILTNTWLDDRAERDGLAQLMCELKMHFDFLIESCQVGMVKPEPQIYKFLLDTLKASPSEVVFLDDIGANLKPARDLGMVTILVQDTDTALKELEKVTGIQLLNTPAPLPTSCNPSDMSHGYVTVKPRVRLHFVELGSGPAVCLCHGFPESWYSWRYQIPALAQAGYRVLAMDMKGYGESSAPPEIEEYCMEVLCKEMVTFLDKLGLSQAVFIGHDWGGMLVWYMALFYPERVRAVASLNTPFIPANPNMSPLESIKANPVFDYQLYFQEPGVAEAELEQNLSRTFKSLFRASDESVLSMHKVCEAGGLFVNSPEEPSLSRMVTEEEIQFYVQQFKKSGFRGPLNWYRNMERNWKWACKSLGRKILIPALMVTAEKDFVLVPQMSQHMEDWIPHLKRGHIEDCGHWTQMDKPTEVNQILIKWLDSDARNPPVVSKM
The assay can be described thus: FRET competitive displacement assay. The following applies: for residence time: read-out: t1/2 (residence time on the enzyme). The assay is classed as binding.

Assay [2] concerns the target T2, recombinant purified human sEH (Homo sapiens, UniProt P34913).
T2 sequence (P34913 1-555): T1 sequence (P34913 1-555)
Description: sEH inhibition, kinetic fluorescent assay with CMNPC substrate. The assay is classed as biochemical.

For orientation: koff means the first-order rate constant of dissociation. A lower koff goes with slow dissociation. Take `CC(NC(=O)NCCCCNC(=O)NC(C)C12CC3CC(CC(C3)C1)C2)C12CC3CC(CC(C3)C1)C2` (centres unmarked) [2b]: in assay [1], the off-rate (koff) was 0.00142 s⁻¹ and the residence time was determined as 8 min.
Regarding `O=C(NCC1CCN(C(=O)NCC23CC4CC(CC(C4)C2)C3)CC1)NCC12CC3CC(CC(C3)C1)C2` [1f], the “inhibition potency in words” value in assay [2] is “poor potency”.
As to `O=C(NCC12CC3CC(CC(C3)C1)C2)Nc1ccc(NC(=O)NCC23CC4CC(CC(C4)C2)C3)cc1` [1e], the “inhibition potency in words” value in assay [2] was “poor potency”.
Turning to `O=C(NCCCCCCCCNC(=O)NC1C2CC3CC(C2)CC1C3)NC1C2CC3CC(C2)CC1C3` (centres unmarked) [3d], in assay [1], the koff came out at 0.00461 s⁻¹ and the residence time was 2.5 min.
In the case of `O=C(NCCCCCCNC(=O)NCC12CC3CC(CC(C3)C1)C2)NCC12CC3CC(CC(C3)C1)C2` [1c], in assay [1], the koff worked out at 0.00116 s⁻¹ and the residence time amounted to 10 min.
